# According to ChEMBL document CHEMBL1201862, “PubChem BioAssay data set” (2004):
#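 96-well plates; 48 h exposure; 5 concentrations. Endpoints by linear interpolation between flanking doses. Not reached: highest tested concentration assigned. The concentration for 50% growth inhibition is given as GI50.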 The source made the active and inactive calls. Cut-off read from the data, not from the text of the source: active = GI50 up to about 1.1 µM and inactive = higher.
# How the values were obtained:
# Experiment in all cases: NCI tumour cell line growth inhibition, 48 h
# [1] = test system: 786-0
# [2] = test system: A498
# [3] = test system: BT-549
# [4] = test system: COLO 205
# [5] = test system: DU-145
# [6] = test system: HCC 2998
# [7] = test system: HOP-92
# [8] = test system: IGROV-1
# [9] = test system: LOX IMVI
# [10] = test system: M14
# [11] = test system: MDA-MB-435
# [12] = test system: NCI-H226
# [13] = test system: NCI-H23
# [14] = test system: OVCAR-3
# [15] = test system: SF-295
# [16] = test system: SK-MEL-5
# [17] = test system: SNB-19
# [18] = test system: SNB-75
# [19] = test system: SR
# [20] = test system: UO-31
SMILES,GI50 [1],GI50 [2],GI50 [3],GI50 [4],GI50 [5],GI50 [6],GI50 [7],GI50 [8],GI50 [9],GI50 [10],GI50 [11],GI50 [12],GI50 [13],GI50 [14],GI50 [15],GI50 [16],GI50 [17],GI50 [18],GI50 [19],GI50 [20]
Cc1cc2c(c(/C=N/Cc3ccccc3)c1)OC1(C=C2)Oc2ccccc2C(=O)N1C (stereo not given),29.4 µM (inactive),23.9 µM (inactive),23.5 µM (inactive),17.9 µM (inactive),25.4 µM (inactive),27.1 µM (inactive),17.5 µM (inactive),22 µM (inactive),17.4 µM (inactive),23.2 µM (inactive),28.7 µM (inactive),16 µM (inactive),24.8 µM (inactive),37.4 µM (inactive),29.6 µM (inactive),19.9 µM (inactive),31.6 µM (inactive),16.4 µM (inactive),3.54 µM (inactive),14 µM (inactive)
Cc1ncc(-c2nnnn2-c2ccccc2)c(C(=O)O)n1,> 100 µM (inactive),> 100 µM (inactive),> 100 µM (inactive),> 100 µM (inactive),> 100 µM (inactive),> 100 µM (inactive),> 100 µM (inactive),> 100 µM (inactive),> 100 µM (inactive),> 100 µM (inactive),> 100 µM (inactive),> 100 µM (inactive),> 100 µM (inactive),> 100 µM (inactive),> 100 µM (inactive),> 100 µM (inactive),> 100 µM (inactive),> 100 µM (inactive),> 100 µM (inactive),> 100 µM (inactive)
CC(C)(C)OC(=O)N(O)CCCn1cnc2c(NC3CC3)ncnc21,> 100 µM (inactive),> 100 µM (inactive),> 100 µM (inactive),> 100 µM (inactive),> 100 µM (inactive),> 100 µM (inactive),> 100 µM (inactive),75.3 µM (inactive),> 100 µM (inactive),> 100 µM (inactive),> 100 µM (inactive),> 100 µM (inactive),> 100 µM (inactive),> 100 µM (inactive),> 100 µM (inactive),> 100 µM (inactive),> 100 µM (inactive),35.1 µM (inactive),> 100 µM (inactive),> 100 µM (inactive)
COC(=O)C#Cc1ccc([N+](=O)[O-])cc1,2.32 µM (inactive),9.91 µM (inactive),1.49 µM (inactive),1.83 µM (inactive),1.76 µM (inactive),1.76 µM (inactive),2.05 µM (inactive),1.81 µM (inactive),0.995 µM (active),2.05 µM (inactive),2.18 µM (inactive),2.47 µM (inactive),1.62 µM (inactive),1.59 µM (inactive),4.24 µM (inactive),2.4 µM (inactive),2.75 µM (inactive),3.14 µM (inactive),0.325 µM (active),1.42 µM (inactive)
O=C(O)C1OC(n2cc(F)c(=O)[nH]c2=O)CC1O (stereo not given),15.6 µM (inactive),10.1 µM (inactive),99.1 µM (inactive),61.5 µM (inactive),24.3 µM (inactive),0.574 µM (active),7.13 µM (inactive),> 100 µM (inactive),8.87 µM (inactive),29.4 µM (inactive),> 93.1 µM (inactive),> 83.9 µM (inactive),38.7 µM (inactive),60.1 µM (inactive),5.47 µM (inactive),32.4 µM (inactive),52.5 µM (inactive),6.11 µM (inactive),6.11 µM (inactive),18.6 µM (inactive)
COc1nc(N)c(NC2OC(CO)C(O)C2O)c(=O)[nH]1 (stereo not given),> 100 µM (inactive),> 100 µM (inactive),> 100 µM (inactive),> 100 µM (inactive),> 100 µM (inactive),> 100 µM (inactive),> 100 µM (inactive),> 100 µM (inactive),> 100 µM (inactive),> 100 µM (inactive),> 100 µM (inactive),> 100 µM (inactive),> 100 µM (inactive),> 100 µM (inactive),> 100 µM (inactive),> 100 µM (inactive),> 100 µM (inactive),> 100 µM (inactive),> 100 µM (inactive),> 100 µM (inactive)
